This note sets out measurements from ChEMBL document CHEMBL5154881, “Discovery of First-in-Class TAK1-MKK3 Protein-Protein Interaction (PPI) Inhibitor (R)-STU104 for the Treatment of Ulcerative Colitis through Modulating TNF-α Production” (J Med Chem, 2022).

For series [1], the system named is Mus musculus. The experiment in a line: Antiinflammatory activity against IL-10-/- C57BL/6 mouse model of acute ulcerative colitis assessed as decrease in serum IL-23 levels administered intragastrically via gavage measured after 8 weeks by ELISA. The series is classed as functional, organism-based. The settings on record: dose 3-10 mg/kg, route ig, DDE = dose-dependent effect. (An ELISA detects its analyte on a solid surface through an enzyme-linked reagent.)

The target of series [2] is T1, Mitogen-activated protein kinase kinase kinase 7 (Homo sapiens) (UniProt O43318).
T1 sequence (whole entry): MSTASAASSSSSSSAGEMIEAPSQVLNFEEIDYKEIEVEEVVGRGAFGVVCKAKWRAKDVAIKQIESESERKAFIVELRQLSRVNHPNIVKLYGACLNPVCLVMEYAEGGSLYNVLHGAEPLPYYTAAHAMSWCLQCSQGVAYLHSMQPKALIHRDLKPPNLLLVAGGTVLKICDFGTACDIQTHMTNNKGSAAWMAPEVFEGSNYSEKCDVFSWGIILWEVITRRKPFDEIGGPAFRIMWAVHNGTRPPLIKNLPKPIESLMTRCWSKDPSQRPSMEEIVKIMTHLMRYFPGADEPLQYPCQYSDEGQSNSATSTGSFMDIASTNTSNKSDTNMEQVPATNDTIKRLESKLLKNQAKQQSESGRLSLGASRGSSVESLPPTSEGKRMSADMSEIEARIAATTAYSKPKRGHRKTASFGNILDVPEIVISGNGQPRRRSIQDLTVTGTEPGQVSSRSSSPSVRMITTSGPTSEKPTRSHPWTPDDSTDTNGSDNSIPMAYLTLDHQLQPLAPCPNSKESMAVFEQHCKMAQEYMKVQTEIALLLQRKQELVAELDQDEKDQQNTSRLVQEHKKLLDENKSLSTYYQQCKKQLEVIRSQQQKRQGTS
In words: Inhibition of human TAK1 at 50 uM using casein as substrate incubated for 40 mins in presence of [gamma-33P]-ATP by scintillation counting method relative to control.

For series [3], the system named is Mus musculus. In words: Inhibition of MKK3-p38 MAPK-elF4E signaling pathway in C57BL/6 mouse model of acute ulcerative colitis assessed as decrease in DSS-induced MKK3 phosphorylation in colon tissue administered intragastrically via gavage measured after 7 days by Western blot analysis. The settings on record: dose 1-50 mg/kg, time 7.0 day, DDE = dose-dependent effect. On the technique in general: A western blot detects proteins with antibodies after separation by electrophoresis.

Series [4] in a line: AUC (0 to infinity) in 12 hr starved C57 mouse at 5 mg/kg, iv measured for 0.083 to 24 hrs post-dose by LC-MS-MS analysis. More on the design: time upper 24 hrs, time lower 0.083 hrs, dose 5 mg/kg, route iv. The class given is ADME, organism-based. Particulars: in vivo.
Series [5] has as its system Mus musculus. The experiment in a line: Antiinflammatory activity against DSS-induced C57BL/6 mouse model of acute ulcerative colitis assessed as inhibition ratio of IL-23 mRNA expression in colon tissue at 3 mg/kg, IG via gavage measured after 7 days by RT-qPCR analysis relative to control. The series is classed as functional. More on the design: scale not given: the % may be the effect or the level left. Particulars: time 7 day.

Series [6] is described as follows: Toxicity in C57 mouse assessed as kidney damage at 50 to 500 mg/kg, po administered daily for 14 days. The class given is organism-based. The settings on record: in vivo, 336 h, dose 50-500 mg/kg, time 14 day.
The subject of series [7] is Mus musculus. The experiment in a line: Antiinflammatory activity against DSS-induced C57BL/6 mouse model of acute ulcerative colitis assessed as reduction in serum IL-23 levels administered intragastrically via gavage measured after 7 days by ELISA. The class given is functional, organism-based. Particulars: dose 1-10 mg/kg, route ig, time 7.0 day, DDE = dose-dependent effect.

The nature of series [8]: Cmax in 12 hr starved C57 mouse at 5 mg/kg, iv measured for 0.083 to 24 hrs post-dose by LC-MS-MS analysis. The series is classed as ADME, organism-based. More on the design: time upper 24 hrs, time lower 0.083 hrs, dose 5 mg/kg, route iv. Particulars: in vivo.
The subject of series [9] is Mus musculus. In words: Antiinflammatory activity against IL-10-/- C57BL/6 mouse model of ulcerative colitis assessed as inhibition ratio of TNF-alpha mRNA expression in colon tissue at 3 mg/kg, IG via gavage and measured after 8 weeks by RT-qPCR analysis relative to control. The class given is functional. More on the design: scale not given: the % may be the effect or the level left. In general terms: Quantitative PCR measures a nucleic acid by following its amplification.

Series [10] relates to Mus musculus. The experiment in a line: Anti-ulcerative colitis activity in IL-10-/- C57BL/6 mouse model of ulcerative colitis assessed as histopathological score recovery ratio at 3 mg/kg, IG via gavage for 8 weeks relative to control. The class given is functional.
Series [11] is described as follows: Half life in 12 hr starved C57 mouse at 5 mg/kg, iv measured for 0.083 to 24 hrs post-dose by LC-MS-MS analysis. The series is classed as ADME, organism-based. Particulars: in vivo, time 0.083-24 hrs.
Series [12] in a line: AUC (0 to t) in 12 hr starved C57 mouse at 30 mg/kg, po measured for 0.083 to 24 hrs post-dose by LC-MS-MS analysis. The series is classed as ADME, organism-based. More on the design: time upper 24 hrs, dose 30 mg/kg, time lower 0.083 hrs, route po. Particulars: in vivo.
Series [13] relates to Mus musculus. The experiment in a line: Anti-ulcerative colitis activity against DSS-induced ulcerative colitis C57BL/6 mouse model assessed as reduction in DAI recovery score ratio at 3 mg/kg, IG via gavage administered for 7 days and measured everyday relative to control. The series is classed as functional. On the set-up: scale not given: the % may be the effect or the level left. Particulars: time 7 day.

Series [14] can be described thus: Apparent volume of distribution in 12 hr starved C57 mouse at 5 mg/kg, iv measured for 0.083 to 24 hrs post-dose by LC-MS-MS analysis. The settings on record: in vivo, time 0.083-24 hrs, read-out: Vz. The class given is ADME, organism-based.
Series [15] has as its target T2, Dual specificity mitogen-activated protein kinase kinase 3 (Homo sapiens) (UniProt P46734).
T2 sequence (whole entry): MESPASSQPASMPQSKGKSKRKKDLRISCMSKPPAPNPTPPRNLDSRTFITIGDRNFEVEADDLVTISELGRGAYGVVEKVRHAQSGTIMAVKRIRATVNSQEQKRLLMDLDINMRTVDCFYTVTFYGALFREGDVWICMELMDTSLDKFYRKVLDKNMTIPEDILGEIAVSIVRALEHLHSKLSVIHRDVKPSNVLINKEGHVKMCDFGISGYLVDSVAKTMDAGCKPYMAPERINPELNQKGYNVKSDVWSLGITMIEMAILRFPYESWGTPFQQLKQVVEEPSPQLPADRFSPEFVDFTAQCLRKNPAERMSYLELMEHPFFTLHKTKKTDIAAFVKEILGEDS
The experiment in a line: Inhibition of human MMK3 at 50 uM using SAPK2a as substrate incubated for 120 mins in presence of [gamma-33P]-ATP by scintillation counting method relative to control.

The test system of series [16] is Mus musculus. In words: Antiinflammatory activity against DSS-induced C57BL/6 mouse model of acute ulcerative colitis assessed as inhibition ratio of IL-23 protein expression at 10 mg/kg, IG via gavage measured after 7 days by ELISA relative to control. The series is classed as functional. More on the design: scale not given: the % may be the effect or the level left. Particulars: time 7 day.

Series [17] concerns Mus musculus. The experiment in a line: Anti-ulcerative colitis activity against DSS-induced ulcerative colitis C57BL/6 mouse model assessed as body weight recovery rate at 3 mg/kg, IG via gavage administered for 7 days and measured everyday relative to control. The class given is functional. The settings on record: time 7 day.
Series [18] deals with Mus musculus. In words: Antiinflammatory activity against DSS-induced C57BL/6 mouse model of acute ulcerative colitis assessed as inhibition ratio of IL-1beta mRNA expression in colon tissue at 1 mg/kg, IG via gavage measured after 7 days by RT-qPCR analysis relative to control. The series is classed as functional. On the set-up: scale not given: the % may be the effect or the level left. Particulars: time 7 day.

The test system of series [19] is Mus musculus. The experiment in a line: Inhibition of MKK3-p38 MAPK-elF4E signaling pathway in C57BL/6 mouse model of acute ulcerative colitis assessed as decrease in DSS-induced Mnk1 phosphorylation in colon tissue administered intragastrically via gavage measured after 7 days by Western blot analysis. Particulars: dose 1-50 mg/kg, time 7.0 day, DDE = dose-dependent effect.

For series [20], the system named is Mus musculus. In words: Antiinflammatory activity against IL-10-/- C57BL/6 mouse model of ulcerative colitis assessed as inhibition ratio of IL-1beta mRNA expression in colon tissue at 1 mg/kg, IG via gavage and measured after 8 weeks by RT-qPCR analysis relative to control. The class given is functional. More on the design: scale not given: the % may be the effect or the level left.

The inhibition is how much of the control response was suppressed. In general, AUC(0-inf) refers to the area under the concentration-time curve extrapolated to infinity. The Cmax is the maximum level reached in the sampled fluid or tissue. As a reminder, the half-life is how long it takes for the measured level to halve. What is called AUC(0-t) is the area under the concentration-time curve up to a stated or last time point.

As to `COc1ccc([C@H]2CC(=O)c3cc(OC)cc(OC)c32)cc1`, the Activity result was “Dde” in series [1]; 89.9% in [5]; “Non-Toxic” in series [6]; “Dde” in series [7]; 69.5% in series [9]; 50.5% in [10]. Further, the Activity turned out to be 40% in series [13]; 52.3% in series [16]; 22.7% in series [17]; 70.1% in series [18]; 22.8% in [20]. For the same molecule, the inhibition in series [2] was under 10%; in [3], “Dde”; in [15], under 10%; in series [19] it was “Dde”. The AUC(0-inf) in series [4] came out at 8640 ng·h/mL. Moreover, in series [8], the Cmax was found to be 2920 ng/mL. The molecule further had a half-life in series [11] of 9.29 h. Besides, in [12], the AUC(0-t) is 9900 ng·h/mL. Moreover, the Vd in series [14] is 7.76 L/kg.
